According to US20250101027A1, “ORGANIC COMPOUND, LIGHT-EMITTING DEVICE, LIGHT-EMITTING APPARATUS, AND ELECTRONIC APPLIANCE” (SEMICONDUCTOR ENERGY LABORATORY CO., LTD., priority 2023, published 2025):
In brackets after ≈: the same amount, converted by molar mass.

Assay: Solubility test in water by LC-MS analysis
Assay type: physicochemical
Settings: for peak area value derived from the compound through the LC-MS analysis (solubility test in water): ultrasonic waves five minutes, filtrate diluted five times with acetonitrile, one atmosphere, room temperature
Description: Next, a solubility test of PrdP2Phen was performed. Note that the solubility test was conducted at a pressure of one atmosphere, at room temperature (RT).
In the LC-MS analysis, liquid chromatography (LC) separation was carried out with ACQUITY UPLC manufactured by Waters Corporation, and MS analysis (mass spectrometry) was carried out with Xevo G2 Tof MS manufactured by Waters Corporation. Acquity UPLC BEH C8 (2.1×100 mm, 1.7 μm) was used as a column for the LC separation. Acetonitrile was used for Mobile Phase A and a 0.1% aqueous solution of formic acid was used for Mobile Phase B. The injection amount of the sample was 5.0 μL. Note that in the analysis, the wavelength of a photodiode array detector was set to 263 nm±1 nm.
In a 5-mL sample bottle, I mg of PrdP2Phen was put and 1 mL of water was added thereto. This mixture was irradiated with ultrasonic waves for five minutes. This mixture was filtered through a membrane filter to remove the solid, and the resulting filtrate was diluted by five times with acetonitrile. The obtained solution was subjected to LC-MS analysis.
In a 5-mL sample bottle, 1 mg of Pyrrd-Phen was put and 2 mL of toluene was added thereto. This mixture was irradiated with ultrasonic waves for five minutes. After it was confirmed that the solid was completely dissolved, this solution was diluted by 5 times with acetonitrile, whereby the concentration of the solution was adjusted to 100 mg/L. This solution was diluted with a 3:7 toluene-acetonitrile mixed solvent, whereby a solution with a concentration of 20 mg/L, a solution with a concentration of 10 mg/L, and a solution with a concentration of 5 mg/L were prepared. The prepared solutions were subjected to LC-MS analysis, and the peak area values derived from Pyrrd-Phen, which were obtained at the respective solution concentrations, were used to form calibration curves.
Next, the water solubility of Pyrrd-Phen was measured.
In a 5-mL sample bottle, 1 mg of Pyrrd-Phen was put and 1 mL of water was added thereto. This mixture was irradiated with ultrasonic waves for five minutes. This mixture was filtered through a membrane filter to remove the solid, and the resulting filtrate was diluted by five times with acetonitrile. The obtained solution was subjected to LC-MS analysis.
Next, a solubility test of Hid-PrdPPhen was performed. Note that the solubility test was conducted at a pressure of one atmosphere at room temperature (RT).
In the LC-MS analysis, liquid chromatography (LC) separation was carried out with ACQUITY UPLC manufactured by Waters Corporation, and MS analysis (mass spectrometry) was carried out with Xevo G2 Tof MS manufactured by Waters Corporation. Acquity UPLC BEH C8 (2.1×100 mm, 1.7 μm) was used as a column for the LC separation. […]

[1] = 1 mg in 1 mL of water, filtered

peak area value derived from the compound through the LC-MS analysis (solubility test in water) [1]	water solubility (in words) (conclusion from LC-MS solubility test)	solubility at 5 min (thermodynamic from solid, from calibration curve and LC-MS signal intensity, 1 mg in 1 mL of water, sonicated, filtered) [µg/mL]	Structure (SMILES)
failed to be obtained	–	–	c1cc(-c2ccc(N3CCCC3)cc2)c2ccc3c(N4CC5CCCCC5C4)ccnc3c2n1 (stereo not shown) [Hid-PrdPPhen, 4-(2,3,3a,4,5,6,7,7a-octahydro-1H-isoindol-2-yl)-7-[4-(I-pyrrolidinyl)phenyl]-1,10-phenanthroline]
failed to be obtained	–	–	c1cc(-c2ccc(N3CCCC3)cc2)c2ccc3c(-c4ccc(N5CCCC5)cc4)ccnc3c2n1 [PrdP2Phen, 4,7-bis[4-(1-pyrrolidinyl)phenyl]-1,10-phenanthroline]
–	high water solubility	59 (≈ 185 µM)	c1cc(N2CCCC2)c2ccc3c(N4CCCC4)ccnc3c2n1 [Pyrrd-Phen, 4,7-di-1-pyrrolidinyl-1,10-phenanthroline]
